Results reported in PubChem BioAssay AID2060356 (Molecular Pharmacology Branch, DTP, NCI, 2025).
Where “and” joins values, the source holds several entries; their conditions need not be identical. Equal values may be shown once.

Tested on: PDC tumor spheroids with HUVEC/MSC, viability
Test: Anticancer human tumor 439559-082-T-J2-PDC patient-derived colon adenocarcinoma cell line growth inhibition [TAK]
Conditions: for viability, T/C: stronger effect = lower value; active means viability on the fitted dose curve at most 10% of control; inactive means the rest
Text: Combinatorial screen of targeted agents with TAK-243 and ipatasertib in multi-cell type tumor spheroids
A high-throughput screen of multi-cell type tumor spheroids was designed to identify active combinations of targeted small molecules and TAK-243 or ipatasertib. Complex spheroids include a stromal component modeled by human endothelial cells (HUVEC) and fibroblasts modeled by human mesenchymal stem cells (MSCs). The concentration ranges selected for each drug and investigational agent were based upon clinically achievable concentrations if the clinical Cmax of the agent was known.
Compounds. The drugs and investigational agents: TAK-243 (785004), ipatasertib (767898), everolimus (733504), selumetinib (741078), bortezomib (756655), trametinib (758246), ixazomib (758254), vemurafenib (761431), dabrafenib (764134), sapanisertib (764658), alpelisib (765974), and copanlisib (816437), were obtained from the National Cancer Institute (NCI) Developmental Therapeutics Program Chemical Repository. The FDA-approved anticancer drug set is available from the NCI Developmental Therapeutics Program. […] The stock solutions were prepared in dimethyl sulfoxide (DMSO, Sigma-Aldrich, St. Louis, MO, cat. D2650) at 800-fold the tested concentration and stored at -70 degrees C prior to their use. All drugs and investigational agents were tested over a range starting from a high concentration at or near the clinical Cmax and decreasing in half-log increments. If the clinical Cmax for an agent had not been determined, the highest concentration tested was 10 microM.
NCI60 Cell Culture. NCI60 cell lines were obtained from the NCI Developmental Therapeutics Program Tumor Repository. For each lot of cells, the Repository performed Applied Biosystems AmpFLSTR Identifiler testing with PCR amplification to confirm consistency with the published Identifier STR profile for each cell line. Cells were kept in continuous culture for no more than 20 passages. The optimal seeding densities for each of the cell lines at each time point assessed were determined prior to performing the concentration response studies. Briefly, the NCI60 human tumor lines were grown as monolayers in RPMI 1640 medium supplemented with 10% FBS and 2 mmol/L L-glutamine.
An additional 2 lines were from the NCI60 cell line panel including melanomas, MALME-3M and SK-MEL-2. Pooled donor human umbilical vein endothelial cells (HUVEC, Lonza, cat. CC-2519) and human mesenchymal stem cells (hMSC, Lonza, cat. PT-2501) were purchased from Lonza (Walkersville, MD).
PDMR cell lines were grown in complete medium (DC medium): Dulbecco's modified Eagle's medium (DMEM)/F12 supplemented with 5% fetal bovine serum (FBS), 2 mM L-glutamine, 100 U/mL penicillin and 100 µg/ml streptomycin, 0.4 µg/ml hydrocortisone, 10 ng/ml epidermal growth factor (EGF) recombinant human protein, 24 µg/mL adenine, and 0.1 mg/mL primocin. During culture from frozen stock vials, PDMR cells were cultured in the same medium containing 10 µM Y-27632 (see Table 3). The PDCs were cultured in complete DMEM/F12 media without 10 microM Y-27632 dihydrochloride for at least two passages prior to the screen. The pooled donor HUVEC and hMSC were cultured in endothelial cell growth medium 2 (PromoCell, Heidelberg, Germany, cat. C-22011) and mesenchymal stem cell growth medium 2 (PromoCell, cat. C-28009), respectively. For all experiments, HUVEC and hMSC were used at passages </=5.
For the pre-screen, cell seeding densities were determined from a titration spanning the range from 5,000 to 313 cells per well. The mct-spheroids including 60% malignant cells, 25% HUVEC and 15% MSC dispensed as a mixture into U-bottom Ultra-Low Attachment 384-well plates (Corning, NY)
High-throughput Drug Combination Screening.
Prior to their inoculation into 384-well plates, malignant cells, HUVEC, and hMSC were removed from T flasks using TrypLE express (Thermo Fisher Scientific, cat. 12605036) and harvested by centrifugation for 5 min at 233 x g. […]

[1] = curve of first compound, second compound 0.3 µM
[2] = curve of first compound, second compound 0.949 µM
[3] = curve of first compound, second compound 3 µM
[4] = curve of first compound, second compound 9.49 µM
[5] = curve of first compound, second compound 30 µM
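Further: spheroids exposed to drugs for seven days before readout.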

CC(C)(C)c1nc(-c2cccc(NS(=O)(=O)c3c(F)cccc3F)c2F)c(-c2ccnc(N)n2)s1 + CC(C)NCC(C(=O)N1CCN(c2ncnc3c2C(C)CC3O)CC1)c1ccc(Cl)cc1
> 10 µM: IC50 [1] | IC50 [2] | IC50 [3] | IC50 [4] | IC50 [5]
inactive: viability, T/C (second compound 0.3 µM, first compound 0.0316 µM) 123% | viability, T/C (second compound 0.3 µM, first compound 0.1 µM) 108% | viability, T/C (second compound 0.3 µM, first compound 0.316 µM) 106% | viability, T/C (second compound 0.3 µM, first compound 1 µM) 110% | viability, T/C (second compound 0.3 µM, first compound 3.16 µM) 113% | viability, T/C (second compound 0.3 µM, first compound 10 µM) 96.3% | viability, T/C (second compound 0.949 µM, first compound 0.0316 µM) 108% | viability, T/C (second compound 0.949 µM, first compound 0.1 µM) 113% | viability, T/C (second compound 0.949 µM, first compound 0.316 µM) 102% | viability, T/C (second compound 0.949 µM, first compound 1 µM) 111% | viability, T/C (second compound 0.949 µM, first compound 3.16 µM) 106% | viability, T/C (second compound 0.949 µM, first compound 10 µM) 96.2% | viability, T/C (second compound 3 µM, first compound 0.0316 µM) 104% | viability, T/C (second compound 3 µM, first compound 0.1 µM) 107% | viability, T/C (second compound 3 µM, first compound 0.316 µM) 106% | viability, T/C (second compound 3 µM, first compound 1 µM) 96.9% | viability, T/C (second compound 3 µM, first compound 3.16 µM) 103% | viability, T/C (second compound 3 µM, first compound 10 µM) 93.8% | viability, T/C (second compound 9.49 µM, first compound 0.0316 µM) 99.8% | viability, T/C (second compound 9.49 µM, first compound 0.1 µM) 107% | viability, T/C (second compound 9.49 µM, first compound 0.316 µM) 102% | viability, T/C (second compound 9.49 µM, first compound 1 µM) 90.5% | viability, T/C (second compound 9.49 µM, first compound 3.16 µM) 96% | viability, T/C (second compound 9.49 µM, first compound 10 µM) 99.5% | viability, T/C (second compound 30 µM, first compound 0.0316 µM) 93.5% | viability, T/C (second compound 30 µM, first compound 0.1 µM) 101% | viability, T/C (second compound 30 µM, first compound 0.316 µM) 96.2% | viability, T/C (second compound 30 µM, first compound 1 µM) 99.4% | viability, T/C (second compound 30 µM, first compound 3.16 µM) 86.8% | viability, T/C (second compound 30 µM, first compound 10 µM) 94%

CC(C)CC(NC(=O)C(Cc1ccccc1)NC(=O)c1cnccn1)B(O)O (configuration not stated) + CC(C)NCC(C(=O)N1CCN(c2ncnc3c2C(C)CC3O)CC1)c1ccc(Cl)cc1
> 0.01 µM: IC50 [1] | IC50 [2] | IC50 [3] | IC50 [4] | IC50 [5]
inactive: viability, T/C (second compound 0.3 µM, first compound 31.6 pM) 112% | viability, T/C (second compound 0.3 µM, first compound 0.0001 µM) 94.2% | viability, T/C (second compound 0.3 µM, first compound 0.000316 µM) 96.6% | viability, T/C (second compound 0.3 µM, first compound 0.001 µM) 97.7% | viability, T/C (second compound 0.3 µM, first compound 0.00316 µM) 97.7% | viability, T/C (second compound 0.3 µM, first compound 0.01 µM) 80.3% | viability, T/C (second compound 0.949 µM, first compound 31.6 pM) 105% | viability, T/C (second compound 0.949 µM, first compound 0.0001 µM) 107% | viability, T/C (second compound 0.949 µM, first compound 0.000316 µM) 92.5% | viability, T/C (second compound 0.949 µM, first compound 0.001 µM) 105% | viability, T/C (second compound 0.949 µM, first compound 0.00316 µM) 93.2% | viability, T/C (second compound 0.949 µM, first compound 0.01 µM) 74% | viability, T/C (second compound 3 µM, first compound 31.6 pM) 102% | viability, T/C (second compound 3 µM, first compound 0.0001 µM) 98.2% | viability, T/C (second compound 3 µM, first compound 0.000316 µM) 93% | viability, T/C (second compound 3 µM, first compound 0.001 µM) 102% | viability, T/C (second compound 3 µM, first compound 0.00316 µM) 89.3% | viability, T/C (second compound 3 µM, first compound 0.01 µM) 70% | viability, T/C (second compound 9.49 µM, first compound 31.6 pM) 93.3% | viability, T/C (second compound 9.49 µM, first compound 0.0001 µM) 97.6% | viability, T/C (second compound 9.49 µM, first compound 0.000316 µM) 92.9% | viability, T/C (second compound 9.49 µM, first compound 0.001 µM) 84.4% | viability, T/C (second compound 9.49 µM, first compound 0.00316 µM) 85.5% | viability, T/C (second compound 9.49 µM, first compound 0.01 µM) 69.3% | viability, T/C (second compound 30 µM, first compound 31.6 pM) 85.8% | viability, T/C (second compound 30 µM, first compound 0.0001 µM) 98.5% | viability, T/C (second compound 30 µM, first compound 0.000316 µM) 87.3% | viability, T/C (second compound 30 µM, first compound 0.001 µM) 89.2% | viability, T/C (second compound 30 µM, first compound 0.00316 µM) 86% | viability, T/C (second compound 30 µM, first compound 0.01 µM) 69.1%

CC(C)(C)c1nc(-c2cccc(NS(=O)(=O)c3c(F)cccc3F)c2F)c(-c2ccnc(N)n2)s1
> 10 µM: IC50 (curve of compound)
inactive: viability, T/C (compound 0.0316 µM) 114% and 120% | viability, T/C (compound 0.1 µM) 109% | viability, T/C (compound 0.316 µM) 118% and 108% | viability, T/C (compound 1 µM) 108% and 104% | viability, T/C (compound 3.16 µM) 120% and 102% | viability, T/C (compound 10 µM) 101% and 98%
